Columns and labels:
[1] = tested on: anaesthetised rabbit model of sexual arousal; test: Increase in clitoral blood flow after iv infusion of vasoactive agents, anaesthetised rabbit model; assay type: in vivo; details: forskolin 40 nmol/kg iv
Source text: (§1) A ventral midline incision was made, at the caudal end of the pubis, to expose the pubic area. Connective tissue was removed to expose the tunica of the clitoris, ensuring that the wall was free from small blood vessels. The external vaginal wall was also exposed by removing any connective tissue. One laser Doppler flow probe was inserted 3 cm into the vagina, so that half the probe shaft was still visible. A second probe was positioned so that it lay just above the external clitoral wall. The position of these probes was then adjusted until a signal was obtained. A second probe was placed just above the surface of a blood vessel on the external vaginal wall. Both probes were clamped in position.
(§2) Vaginal and clitoral blood flow was recorded either as numbers directly from the Flowmeter using Po-ne-mah data acquisition software (Ponemah Physiology Platform, Gould Instrument Systems Inc), or indirectly from Gould chart recorder trace. Calibration was set at the beginning of the experiment (0-125 ml/min/100 g tissue).

isolated rabbit vagina [2] = test: Relaxation of precontracted (1 μM phenylephrine) isolated rabbit vaginal strips; assay type: cell-based; details: Oryctolagus cuniculus, precontracted with 1 μM phenylephrine
Experimental: (§3) 3.7 (a). Rabbit vagina in vitro preparation:—Female New Zealand white rabbits (2.0-3.0 kg) were killed by cervical dislocation. The abdominal cavity was opened and the vagina excised. Tissue strips were mounted longitudinally in Wesley Co. 5 ml silanised organ chambers with braided silk sutures (6/0 gauge) at an initial resting tension of 1.5 g in Krebs bicarbonate buffer maintained at 37° C. and gassed with 95%O2/5%CO2. The upper ligature of each tissue strip was attached to a 10 g capacity force-displacement transducer and changes in isometric force were measured and recorded using a DART in vitro data capture system. Tissues were allowed to equilibrate for 1.5 hours and were regularly washed with Krebs.
(§4) Each tissue was contracted using 1 μM bath concentration of phenylephrine. […] Tissues then received either a test agent (eg NEP or PDE inhibitor) or DMSO vehicle (time matched control).
(§5) For the purpose of curve fitting the minimum relaxation response was constrained to 0% and the maximum relaxation response was allowed to free fit.

[3] = tested on: anaesthetised rabbit model of sexual arousal; test: Enhancement of VIP-induced increases in vaginal blood flow, anaesthetised rabbit model; assay type: in vivo; details: for effect on VIP-induced increases in vaginal blood flow: at clinically relevant doses
Source text: as §1, §2
An initial infusion of Hepsaline (50UI/ml) was infused to act as a negative control.
(§6) NEP (Neutral Endopeptidase EC3.4.24.11; Sequence No. 1) inhibitors, phosphodiesterase type 5 (PDE5) inhibitors and NPY Y1 antagonists were made up in saline or 5% glucose solution (200 μl 50% glucose in 1.8 ml water for injection). PDEcAMP inhibitors were dissolved in a 40% ethanol solution (200 μl 50% glucose in 1.8 ml water/ethanol for injection).

isolated rabbit vagina [4] = test: Enhancement of VIP-induced relaxation of precontracted isolated rabbit vagina by test agents; assay type: cell-based; details: for effect on VIP-induced and nerve-mediated relaxations of isolated tissue: at clinically relevant doses; for Percentage enhancement of VIP(Sequence No. 8)-induced relaxation: PDE inhibitor at selective dose, isolated rabbit vagina, 1 μM phenylephrine
Experimental: as §3, §4, §5

[5] = tested on: anaesthetised rabbit model of sexual arousal; test: Enhancement of pelvic nerve stimulated (PNS) increases in vaginal blood flow, anaesthetised rabbit model; assay type: in vivo; details: for effect on pelvic nerve stimulated increases in vaginal blood flow: at clinically relevant doses
Source text: (§7) A ventral midline incision was made into the abdominal cavity. The incision was about 5 cm in length just above the pubis. The fat and muscle was bluntly dissected away to reveal the hypogastric nerve which runs down the body cavity. It was essential to keep close to the side curve of the pubis wall in order to avoid damaging the femoral vein and artery which lie above the pubis. The sciatic and pelvic nerves lie deeper and were located after further dissection on the dorsal side of the rabbit. Once the sciatic nerve is identified, the pelvic nerve was easily located. The term pelvic nerve is loosely applied; anatomy books on the subject fail to identify the nerves in sufficient detail. However, stimulation of the nerve causes an increase in vaginal and clitoral blood flow, and innervation of the pelvic region. The pelvic nerve was freed away from surrounding tissue and a Harvard bipolar stimulating electrode was placed around the nerve. The nerve was slightly lifted to give some tension, then the electrode was secured in position. Approximately 1 ml of light paraffin oil was placed around the nerve and electrode. This acts as a protective lubricant to the nerve and prevents blood contamination of the electrode. The electrode was connected to a Grass S88 Stimulator. The pelvic nerve was stimulated using the following parameters: −5V, pulse width 0.5 ms, duration of stimulus 10 seconds and a frequency range of 2 to 16 Hz. Reproducible responses were obtained when the nerve was stimulated every 15-20 minutes.
(§8) A frequency response curve was determined at the start of each experiment in order to determine the optimum frequency to use as a sub-maximal response, normally 4 Hz. The compound(s) to be tested were infused, via the femoral vein, using a Harvard 22 infusion pump allowing a continuous 15 minute stimulation cycle.
as §1, §2, §6

isolated rabbit vagina [6] = test: Electrical field stimulated (EFS) relaxation of isolated rabbit vagina; assay type: cell-based
Experimental: Rabbit vaginal strips were prepared as described in Section 3.7 (a). The tissue strips were mounted between two platinum electrodes placed at the top and bottom of the organ chamber approximately 4 cm apart. Each tissue was contracted using 1 μM bath concentration of phenylephrine. When the contractile response reached a stable plateau (15 minutes), the tissues underwent a pre-treatment electrical field stimulated (EFS) induced relaxation curve. This was performed between 40-60 volts using sequential frequencies of 2, 4, 8 and 16 Hz delivered as 10 second trains of 0.5 milli second pulse width. The tissues were allowed to return to base line pre-contractile tension between each frequency (5 minutes) and the size of the relaxation response recorded.
After completion of the pre-treatment EFS response curve, all tissues were washed for 15 minutes, allowing the tissues to return to the baseline tension. Tissues then received either a test agent (eg NEP or PDE inhibitor, nitric oxide synthase [NOS] inhibitor) or DMSO vehicle (time matched control). Tissues were re-contracted with phenylephrine (1 μM) 15 minutes after the addition of compound or vehicle and an EFS-induced relaxation response curve determined as described above. […]

[7] = tested on: anaesthetised rabbit model of sexual arousal; test: Enhancement of pelvic nerve stimulated increases in clitoral blood flow, anaesthetised rabbit model; assay type: in vivo
Source text: as §7
as §8, with “cycle. […]” for “cycle.”
Vaginal and clitoral blood flow was recorded either as numbers directly from the Flowmeter using Po-ne-mah data acquisition software (Ponemah Physiology Platform, Gould Instrument Systems Inc), or indirectly from Gould chart recorder trace. […]

With `C=C[C@@]1(C)CC(=O)[C@]2(O)[C@@]3(C)[C@@H](O)CCC(C)(C)[C@@H]3[C@H](O)[C@H](OC(C)=O)[C@@]2(C)O1` [forskolin] the “increase in clitoral blood flow” value [1] was 156%, the IC50 (isolated rabbit vagina [2]; FIG. 4c) was roughly 300 nM and the EC50 (isolated rabbit vagina [2]; read-out: EC50 for relaxation in isolated vaginal tissue) was 320 ± 20 nM.
With `C=CCC(CC1(C(=O)NC2CCCC(C(=O)OCC)C2)CCCC1)C(=O)O` (centres unmarked) [FV, cyclohexanecarboxylic acid, 3-[[[1-(2-carboxy-4-pentenyl)cyclopentyl]carbonyl]amino]-,1-ethyl ester] the “effect on VIP-induced increases in vaginal blood flow” value (shortened to “effect on VIP-induced increases”) [3] was “enhance”, the “effect on VIP-induced and nerve-mediated relaxations of isolated tissue” value (isolated rabbit vagina [4]) was “enhance” and the “effect on pelvic nerve stimulated increases in vaginal blood flow” value [5] was “enhance”.
`Cc1nc(O)c(C#N)cc1-c1ccncc1` [FIII, Milrinone] was tested, and the “Percentage enhancement of VIP(Sequence No. 8)-induced relaxation” value (isolated rabbit vagina [4]) was 220% and the “potentiation of VIP EC50 values” (isolated rabbit vagina [4]; inhibitor at 3.4 μM) was 220%.
With `COc1ccc(Cc2nc3c(ncn3C(CCCc3ccccc3)C(C)=O)c(=O)[nH]2)cc1OC` (centres unmarked) [FII, 9-(1-acetyl-4-phenylbutyl)-2-[(3,4-dimethoxyphenyl)methyl]-1,9-dihydro-6H-purin-6-one] the “enhancement of peak increase in blood flow induced by VIP-stimulation” value ([3]; 200 μg/kg) was “circa 15±3%”, the “enhancement of duration of VIP-induced increases in peak vaginal blood flow” value ([3]; VIP 60 μg/kg, measured at 50% amplitude) was “over 100%” and the “effect on VIP-induced increases” value [3] was “enhances”. For the same compound, the “effect on VIP-induced enhanced vaginal blood flow” value ([3]; inhibitor 25 μg/kg iv bolus, VIP 60 μg/kg iv bolus) was “potentiates the duration”, the “Percentage enhancement of VIP(Sequence No. 8)-induced relaxation” value (isolated rabbit vagina [4]) was 130% and the “potentiation of VIP EC50 values” (isolated rabbit vagina [4]; inhibitor at 8 nM) was 130%. For the same compound, the “enhancement of peak increase in blood flow induced by pelvic nerve stimulation” value ([5]; 200 μg/kg, 4 Hz) was “circa 15±3%”, the “enhancement of peak increase in PNS vaginal blood flow” value ([5]; 500 μg/kg iv, 4 Hz) was 86.8±21.9% and the “effect on pelvic nerve stimulated increases in vaginal blood flow” value [5] was “enhances”.
`NC(=NCCC[C@H](N)C(=O)O)N[N+](=O)[O-]` [L-NOARG] was tested, and the “inhibition of EFS-induced relaxations” value (isolated rabbit vagina [6]; 300 μM) was 50%.
`COc1ccc(C2CNC(=O)C2)cc1OC1CCCC1` (centres unmarked) [FIV, Rolipram] was tested, and the “Percentage enhancement of VIP(Sequence No. 8)-induced relaxation” value (isolated rabbit vagina [4]) was 160% and the “potentiation of VIP EC50 values” (isolated rabbit vagina [4]; inhibitor at 686 nM) was 160%.
With `C=CCC(CC1(C(=O)NC2CCCC(C(=O)O)C2)CCCC1)C(=O)O` (centres unmarked) [FVI, cyclohexanecarboxylic acid, 3-[[[1-(2-carboxy-4-pentenyl)cyclopentyl]carbonyl]amino]-] the “enhancement of peak increase in PNS clitoral blood flow” value ([7]; 1.0 mg/kg iv, 4 Hz) was 131%, the “maximal enhancement of peak increase in PNS clitoral blood flow (up to)” value ([7]; compared to vehicle control increases) was “up to 131%” and the “effect on basal (unstimulated) clitoral blood flow” value ([7]; no pelvic nerve stimulation) was “no effect”. The “effect on non-nitric oxide NANC relaxation induced by EFS” value (isolated rabbit vagina [6]; 1 μM) was “enhances”, the “increase in duration of VIP-induced elevation of vaginal blood flow” value ([3]; VIP dose producing maximal flow increases) was “circa 80%” and the “duration of VIP-induced elevation in presence of inhibitor” value ([3]; VIP dose producing maximal flow increases, 11 minutes without inhibitor) was 20 min. The “effect on VIP-induced increases” value [3] was “enhance”, the “effect on VIP-induced enhanced vaginal blood flow” value ([3]; maximal VIP 60 μg/kg) was “only potentiate the duration” and the “effect on VIP-induced enhanced vaginal blood flow” value ([3]; submaximal VIP 6.0 μg/kg) was “both potentiates the amplitude and prolongs the duration”. The “potentiation of peak VIP-induced increase in vaginal blood flow” value ([3]; submaximal VIP 6.0 μg/kg) was 95±6%, the “prolongation of duration of VIP-induced increase in vaginal blood flow” value ([3]; submaximal VIP 6.0 μg/kg) was “circa 140%” and the “duration of VIP-induced increase in presence of inhibitor” value ([3]; submaximal VIP 6.0 μg/kg, 7 minutes without inhibitor) was greater than 17 min. The “effect on VIP-induced and nerve-mediated relaxations of isolated tissue” value (isolated rabbit vagina [4]) was “enhance”, the “enhancement of peak increase in PNS vaginal blood flow” value ([5]; 0.1 mg/kg iv, submaximal stimulation 4 Hz) was 35.0±7.6% and the “enhancement of peak increase in PNS vaginal blood flow” value ([5]; 0.3 mg/kg iv, submaximal stimulation 4 Hz, listed as NEP inhibitor) was 40%. For the same compound, the “effect on pelvic nerve stimulated increases in vaginal blood flow” value [5] was “enhance”, the “maximal enhancement of peak increase in PNS vaginal blood flow (up to)” value ([5]; compared to time matched control increases) was “up to 53%” and the “effect on basal (unstimulated) vaginal blood flow” value ([5]; no pelvic nerve stimulation) was “no effect”.
